This is an account of results in patent US12344603B2 (Genentech, Inc., priority 2020, dated 2025).

Counter-ions that a name gives are not always drawn.

IRE1α, sequence (O75460 547-977 D688N): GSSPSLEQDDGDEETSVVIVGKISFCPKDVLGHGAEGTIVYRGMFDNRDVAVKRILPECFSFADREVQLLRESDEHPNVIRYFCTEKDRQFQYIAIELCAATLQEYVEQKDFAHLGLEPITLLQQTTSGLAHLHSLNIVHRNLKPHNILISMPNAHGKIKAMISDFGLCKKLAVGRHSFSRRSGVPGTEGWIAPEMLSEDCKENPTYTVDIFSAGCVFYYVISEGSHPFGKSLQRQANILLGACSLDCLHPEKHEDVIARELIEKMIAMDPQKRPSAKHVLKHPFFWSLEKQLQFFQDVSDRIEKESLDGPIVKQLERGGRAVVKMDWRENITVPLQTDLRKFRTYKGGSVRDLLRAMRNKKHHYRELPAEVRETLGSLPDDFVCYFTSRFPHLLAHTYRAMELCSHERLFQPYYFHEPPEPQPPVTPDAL

This experiment has as its target IRE1α (Homo sapiens (Human), UniProt O75460, D688N). Nature of the experiment: IRE1α TR-FRET competition binding assay (IRE1α HTRF). To be noted: TR-FRET competition binding to kinase domain of IRE1α. The method, boiled down: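 Competition of compounds against an Alexa fluor 647 ATP-site probe (2 nM final) for the His-tagged kinase domain (0.25 nM final), detected via 2 nM Eu anti-His antibody by TR-FRET, 665 and 615 nm emission. Protein–antibody premix 1 h, 4° C; reaction 1 h, room temperature, pH 7.5 HEPES buffer.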
`CC(C)n1c(=O)c(-c2ccc(NS(=O)(=O)Cc3ccccc3F)cn2)cc2cnc(N[C@@H]3CNC[C@@H](F)C3)nc21` [Compound 95, 1-(2-Fluorophenyl)-N-(6-(2-(((3S,5S)-5-fluoropiperidin-3-yl)amino)-8-isopropyl-7-oxo-7,8-dihydropyrido[2,3-d]pyrimidin-6-yl)pyridin-3-yl)methanesulfonamide]: the IC50 (in general, the concentration needed to halve the response being measured) is 0.46 nM. This lies in the sub-nanomolar range.
On to `CC(C)n1c(=O)c(-c2cc(F)c(NC(=O)[C@@H]3C[C@@H]3F)c(F)c2F)cc2cnc(N[C@H]3CC[C@H](N(C)C)CC3)nc21` [Compound 96, (1S,2S)—N-(4-(2-(((r,4r)-4-(dimethylamino)cyclohexyl)amino)-8-isopropyl-7-oxo-7,8-dihydropyrido[2,3-d]pyrimidin-6-yl)-2,3,6-trifluorophenyl)-2-fluorocyclopropane-1-carboxamide], for which the IC50 was found to be 1.6 nM.
As for `COc1ccc(Cl)cc1CS(=O)(=O)Nc1c(F)cc(-c2cc3cnc(N[C@@H]4CNC[C@@H](F)C4)nc3n(C(C)C)c2=O)c(F)c1F` [Compound 97, 1-(5-Chloro-2-methoxyphenyl)-N-(2,3,6-trifluoro-4-(2-(((3S,5S)-5-fluoropiperidin-3-yl)amino)-8-isopropyl-7-oxo-7,8-dihydropyrido[2,3-d]pyrimidin-6-yl)phenyl)methanesulfonamide hydrochloride], the IC50 was determined as 0.27 nM. Against the preceding compound, the IC50 is about 5.9-fold lower.
As to `CC(C)n1c(=O)c(-c2cc(F)c(NCC(O)C(F)(F)F)c(F)c2F)cc2cnc(N[C@H]3CC[C@H](N(C)C)CC3)nc21` (some centres unmarked) [Compound 99, 2-(((1r,4r)-4-(Dimethylamino)cyclohexyl)amino)-8-isopropyl-6-(2,3,5-trifluoro-4-((3,3,3-trifluoro-2-hydroxypropyl)amino)phenyl)pyrido[2,3-d]pyrimidin-7(8H)-one], the IC50 came to 46 nM. This IC50 is about 170-fold higher than that of the compound before.
In the case of `CC(C)n1c(=O)c(-c2cc(F)c(NCC(O)C(F)(F)F)c(F)c2F)cc2cnc(N[C@H]3CC[C@H](N(C)C)CC3)nc21` (some centres unmarked) [Compound 99A, 2-(((1r,4r)-4-(Dimethylamino)cyclohexyl)amino)-8-isopropyl-6-(2,3,5-trifluoro-4-((3,3,3-trifluoro-2-hydroxypropyl)amino)phenyl)pyrido[2,3-d]pyrimidin-7(8H)-one] it was 68 nM; in that of `CC(C)n1c(=O)c(-c2ccc(NS(=O)(=O)CCC(F)(F)F)c(F)c2)cc2cnc(N[C@H]3CCC[C@H](N)C3)nc21` [Compound 103, N-(4-(2-(((1S,3S)-3-Aminocyclohexyl)amino)-8-isopropyl-7-oxo-7,8-dihydropyrido[2,3-d]pyrimidin-6-yl)-2-fluorophenyl)-3,3,3-trifluoropropane-1-sulfonamide], 26 nM; in that of `CC(C)n1c(=O)c(-c2ccc(NS(=O)(=O)CCC(F)(F)F)c(F)c2)cc2cnc(N[C@H]3CCC[C@H](N(C)C)C3)nc21` [Compound 104, hydrochloride], 72 nM.
For the compound `CC(C)n1c(=O)c(-c2ccc(NS(=O)(=O)c3ccccc3Cl)nc2)cc2cnc(N[C@H]3CC[C@H](N(C)C)CC3)nc21` [Compound 105, 2-Chloro-N-(5-(2-(((1r,4r)-4-(dimethylamino)cyclohexyl)amino)-8-isopropyl-7-oxo-7,8-dihydropyrido[2,3-d]pyrimidin-6-yl)pyridin-2-yl)benzenesulfonamide], the IC50 is 0.16 nM.
Take `CC(C)n1c(=O)c(-c2ccc(NS(=O)(=O)c3ccccc3)nc2)cc2cnc(N[C@H]3CC[C@H](N(C)C)CC3)nc21` [Compound 106, N-(5-(2-(((1r,4r)-4-(Dimethylamino)cyclohexyl)amino)-8-isopropyl-7-oxo-7,8-dihydropyrido[2,3-d]pyrimidin-6-yl)pyridin-2-yl)benzenesulfonamide]: the IC50 stood at 0.15 nM. This IC50 and that of the compound before are within 1.5-fold of each other.
For `Cc1ccc(CS(=O)(=O)Nc2c(F)cc(-c3cc4cnc(N[C@@H]5CNC[C@@H](F)C5)nc4n(C(C)C)c3=O)c(F)c2F)c(C#N)c1` [Compound 107, 1-(2-Cyano-4-methylphenyl)-N-(2,3,6-trifluoro-4-(2-(((3S,5S)-5-fluoropiperidin-3-yl)amino)-8-isopropyl-7-oxo-7,8-dihydropyrido[2,3-d]pyrimidin-6-yl)phenyl)methanesulfonamide], the IC50 was 0.13 nM.
In the case of `CC(C)n1c(=O)c(-c2ccc(NS(=O)(=O)CCC(F)(F)F)c(F)c2)cc2cnc(N[C@H]3CCC[C@@H](N)C3)nc21` [Compound 108, N-(4-(2-(((1S,3R)-3-Aminocyclohexyl)amino)-8-isopropyl-7-oxo-7,8-dihydropyrido[2,3-d]pyrimidin-6-yl)-2-fluorophenyl)-3,3,3-trifluoropropane-1-sulfonamide hydrochloride], the IC50 turned out to be 23 nM.
For the compound `CC(C)n1c(=O)c(-c2ccc(NS(=O)(=O)CC3CCCC3)c(F)c2)cc2cnc(N[C@H]3CC[C@H](N(C)C)CC3)nc21` [Compound 109, 1-Cyclopentyl-N-(4-(2-(((1r,4r)-4-(dimethylamino)cyclohexyl)amino)-8-isopropyl-7-oxo-7,8-dihydropyrido[2,3-d]pyrimidin-6-yl)-2-fluorophenyl)methanesulfonamide], the IC50 stood at 0.13 nM. Compared with the last compound, the IC50 is about 180-fold lower.
`CC(C)n1c(=O)c(-c2ccc(NS(=O)(=O)Cc3ccc(F)cc3)c(F)c2)cc2cnc(N[C@@H]3CNC[C@@H](F)C3)nc21` [Compound 112, N-(2-Fluoro-4-(2-(((3S,5S)-5-fluoropiperidin-3-yl)amino)-8-isopropyl-7-oxo-7,8-dihydropyrido[2,3-d]pyrimidin-6-yl)phenyl)-1-(4-fluorophenyl)methanesulfonamide hydrochloride] returned an IC50 of 0.13 nM.
In the case of `Cc1ccc(CS(=O)(=O)Nc2c(F)cc(-c3cc4cnc(N[C@H]5CC[C@H](N(C)C)CC5)nc4n(C(C)C)c3=O)c(F)c2F)c(C#N)c1` [Compound 113, 1-(2-Cyano-4-methylphenyl)-N-(4-(2-(((1r,4r)-4-(dimethylamino)cyclohexyl)amino)-8-isopropyl-7-oxo-7,8-dihydropyrido[2,3-d]pyrimidin-6-yl)-2,3,6-trifluorophenyl)methanesulfonamide], the IC50 is 0.22 nM.
`CC(C)n1c(=O)c(-c2ccc(NS(=O)(=O)CCC(F)(F)F)c(F)c2)cc2cnc(N[C@H]3CCC[C@@H](N(C)C)C3)nc21` [Compound 114, N-(4-(2-(((1S,3R)-3-(Dimethylamino)cyclohexyl)amino)-8-isopropyl-7-oxo-7,8-dihydropyrido[2,3-d]pyrimidin-6-yl)-2-fluorophenyl)-3,3,3-trifluoropropane-1-sulfonamide] gave an IC50 of 180 nM.
For the compound `CC(C)n1c(=O)c(-c2ccc(NS(=O)(=O)CC3CCCCC3)c(F)c2)cc2cnc(N[C@H]3CC[C@H](N(C)C)CC3)nc21` [Compound 115, 1-Cyclohexyl-N-(4-(2-(((1r,4r)-4-(dimethylamino)cyclohexyl)amino)-8-isopropyl-7-oxo-7,8-dihydropyrido[2,3-d]pyrimidin-6-yl)-2-fluorophenyl)methanesulfonamide], the IC50 came out at 0.15 nM.
`CC(C)n1c(=O)c(-c2cc(F)c(NS(=O)(=O)Cc3ccc(Cl)cc3)c(F)c2)cc2cnc(N[C@H]3CC[C@H](N(C)C)CC3)nc21` [Compound 116, 1-(4-Chlorophenyl)-N-(4-(2-(((1r,4r)-4-(dimethylamino)cyclohexyl)amino)-8-isopropyl-7-oxo-7,8-dihydropyrido[2,3-d]pyrimidin-6-yl)-2,6-difluorophenyl)methanesulfonamide]: the IC50 was 0.25 nM.
As for `CC(C)n1c(=O)c(-c2cc(F)c(NS(=O)(=O)Cc3ccccc3)c(F)c2)cc2cnc(N[C@H]3CC[C@H](N(C)C)CC3)nc21` [Compound 117, N-(4-(2-(((1r,4r)-4-(Dimethylamino)cyclohexyl)amino)-8-isopropyl-7-oxo-7,8-dihydropyrido[2,3-d]pyrimidin-6-yl)-2,6-difluorophenyl)-1-phenylmethanesulfonamide], the IC50 came out at 0.18 nM.
With `Cc1ccc(CS(=O)(=O)Nc2c(F)cc(-c3cc4cnc(N[C@H]5CC[C@H](N(C)C)CC5)nc4n(C(C)C)c3=O)cc2F)cc1` [Compound 120, N-(4-(2-(((1r,4r)-4-(Dimethylamino)cyclohexyl)amino)-8-isopropyl-7-oxo-7,8-dihydropyrido[2,3-d]pyrimidin-6-yl)-2,6-difluorophenyl)-1-(p-tolyl)methanesulfonamide] the figure was 1.7 nM.
`COCCN(C)[C@H]1CC[C@H](Nc2ncc3cc(-c4cc(F)c(NS(=O)(=O)Cc5ccc(F)cc5)c(F)c4)c(=O)n(C(C)C)c3n2)CC1` [Compound 122, N-(2,6-Difluoro-4-(8-isopropyl-2-(((1r,4r)-4-((2-methoxyethyl)(methyl)amino)cyclohexyl)amino)-7-oxo-7,8-dihydropyrido[2,3-d]pyrimidin-6-yl)phenyl)-1-(4-fluorophenyl)methanesulfonamide] came in with an IC50 of 0.12 nM.
For the compound `COCCN(C)[C@H]1CC[C@H](Nc2ncc3cc(-c4ccc(NS(=O)(=O)Cc5ccc(F)cc5)c(F)c4)c(=O)n(C(C)C)c3n2)CC1` [Compound 123, N-(2-Fluoro-4-(8-isopropyl-2-(((1r,4r)-4-((2-methoxyethyl)(methyl)amino)cyclohexyl)amino)-7-oxo-7,8-dihydropyrido[2,3-d]pyrimidin-6-yl)phenyl)-1-(4-fluorophenyl)methanesulfonamide], the IC50 amounted to 0.05 nM.
For the compound `COCCN(C)[C@H]1CC[C@H](Nc2ncc3cc(-c4ccc(NS(=O)(=O)Cc5ccccc5)c(F)c4)c(=O)n(C(C)C)c3n2)CC1` [Compound 124, N-(2-Fluoro-4-(8-isopropyl-2-(((1r,4r)-4-((2-methoxyethyl)(methyl)amino)cyclohexyl)amino)-7-oxo-7,8-dihydropyrido[2,3-d]pyrimidin-6-yl)phenyl)-1-phenylmethanesulfonamide hydrochloride], the IC50 was 0.12 nM. This IC50 lies about 2.4-fold higher than the previous one.
`CC(C)n1c(=O)c(-c2cc(F)c(NS(=O)(=O)Cc3ccc(C(F)F)cc3)c(F)c2)cc2cnc(N[C@H]3CC[C@H](N(C)C)CC3)nc21` [Compound 125, 1-(4-(Difluoromethyl)phenyl)-N-(4-(2-(((1r,4r)-4-(dimethylamino)cyclohexyl)amino)-8-isopropyl-7-oxo-7,8-dihydropyrido[2,3-d]pyrimidin-6-yl)-2,6-difluorophenyl)methanesulfonamide]: the IC50 came out at 0.19 nM.
